Experimental data published in patent US20250073234A1, “COMBINATION THERAPIES INCLUDING PARP1 INHIBITORS” (Cornell University, priority 2022, published 2025).

Test system: TRAMP+ prostate tumors
Test: TRAMP+ prostate tumor model (IHC, scRNAseq)
Assay type: in vivo, mouse
Procedure: For mouse xenografts using PC3 PCa cells and sgC or sgAP-1 WPMY-1 stromal cells. 7 weeks old NSG mice were surgical castrated and let androgen levels drop for 10 days. Cells were trypsinized washed two times in PBS and resuspend in DMEN. 1×10^6 PC3 and 1×10^6 sgC or sgAP1-A WPMY-1 for each mouse were resuspended in 100 μl DMEM: Matrigel (1:1) and injected subcutaneously into both flanks of immunocompromised NSG mice (PC3+sgC WPMY-1 n=4; PC3+sgAP-1 WPMY-1 n=4). Tumors were allowed to grow for 1 month. Mice were euthanized and tumors were collected and analyzed histologically. For Olaparib treatment in mouse xenografts. PC3 PCa cells and WPMY-1 stromal cells were trypsinized washed two times in PBS and resuspend in DMEN. 1×10^6 PC3 and 1×10^6 WPMY-1 for each mouse were resuspended in 100 μl DMEM: Matrigel (1:1) and injected subcutaneously into both flanks of immunocompromised NSG mice. Tumors were allowed to grow for 14 days, and mouse were randomly divided to receive vehicle, n=10, Olaparib (40 mg/kg, 2 days each week, i.p.), n=10 or Olaparib (40 mg/kg, 2 days each week, i.p.)+_PEGPH20 (0.0375 mg/Kg, 2 days each week, retroorbital injection) n=10. Tumors were measured twice a week. Mice were euthanized 14 days after the initiation of the treatment and tumors were collected and analyzed histologically. For Olaparib treatment in mice, 13 weeks-old male TRAMP^+, n=18, were randomly distributed to receive vehicle, n=9, or Olaparib (40 mg/kg/, 5 days each week, i.p.), n=9. Mice were euthanized 1 month after the initiation of the treatment. Prostate and other organs were collected and analyzed histologically.
Tissues from indicated mice were isolated, fixed in zinc buffered formalin overnight at 4° C., dehydrated, and embedded in paraffin. Sections (5 μm) were stained with hematoxylin and eosin (H&E). For immunohistochemistry, sections were deparaffinized, rehydrated, and then treated for antigen retrieval. After blocking in Protein Block Serum-Free solutions (DAKO), tissues were incubated with primary antibody overnight at 4° C. followed by incubation with biotinylated secondary antibody. Endogenous peroxidase was quenched in 3% H2O2 in water for 10 minutes at room temperature. Antibodies were visualized with avidin-biotin complex (Vectastain Elite; Vector Laboratories) using diaminobenzidine as the chromogen. Stained sections were analyzed with a Zeiss light microscope supplemented with Zen 3.3 Bule edition software.
Prostate lobes dissected and washed with cold PBS. Prostate tissue was gently minced with scissors and digested in Advance DMEN/F12 media (Gibco, Thermo Fisher) with 5 mg/ml Collagenase type II (Sigma) supplemented with Y27632 (Tocris) for 1 hour at 37° C. Cells were passed through a 70 μm strainer and centrifuge 5 minutes, 1000 rpm at 4° C. After that, cells were incubated with TrypLE Express (Gibco, Thermo Fisher) supplemented with Y27632 for 20 minutes in agitation at 37° C. to achieve a single cell suspension. TrypLE Express was quenched and washed with Advance DMEN/F12 media and then cells were centrifuged for 5 minutes, 1000 rpm at 4° C. Dead cells were removed by Annexin V ([…] technologies). scRNA-seq libraries were generated using the Chromium Single Cell 30 Reagent Kit v2 (10× Genomics). Cells were loaded onto the 10×Chromium Single Cell Platform (10× Genomics) at a concentration of 2,000 cells per μl (Single Cell 3′ library and Gel Bead Kit v.2) as described in the manufacturer's protocol (10× User Guide, Revision B). On average, approximately 8,000 cells were loaded. Generation of gel beads in emulsion (GEMs), barcoding, GEM-RT clean-up, complementary DNA amplification and library construction were all performed as per the manufacturer's protocol. Individual sample quality was checked using a Bioanalyzer Tapestation (Agilent). Qubit was used for library quantification before pooling. The final library pool was sequenced on an Illumina NovaSeq6000 instrument using a S1 flow cell. […]

O=C(c1cc(Cc2n[nH]c(=O)c3ccccc23)ccc1F)N1CCN(C(=O)C2CC2)CC1 [Olaparib]
desmoplastic response in the prostate (IHC HA, aSMA) (Olaparib 40 mg/Kg, 5 days a week, 4 weeks): induced a strong desmoplastic response in the prostate
AR, EMT and TGFβ signaling signatures in tumor epithelium (Olaparib 4 weeks): increased AR, EMT and TGFβ signaling
Has1, Spink1 and Tgfb2 transcripts in fibroblast population (scRNAseq) (Olaparib 4 weeks): among the most upregulated transcripts
neuroendocrine cluster 2 (NE1) of tumor epithelium (scRNAseq) (Olaparib 4 weeks): completely abolished the neuroendocrine cluster 2
pSMAD2 staining in prostates (IHC) (Olaparib 4 weeks): increased pSMAD2 staining
stromal and immune cell populations (scRNAseq) (Olaparib 4 weeks): expansion of the stromal and immune populations
SPINK1 levels in tumor stroma (IHC) (in vivo): highly upregulated
